Our source for the GI50 and TGI values is PubChem BioAssay (NCI).

Structures are written as SMILES.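 How tested: cells in 96-well plates exposed to compound for 48 hours at five concentrations. The concentration for 50% growth inhibition is given as GI50. At the TGI there is no net growth.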

Common to all, as to assay: NCI-60 cell line screen, 48 h
Assay [1] concerns SK-MEL-28 melanoma.
For assay [2], the system named is A549 NSCLC.
Assay [3] deals with SK-OV-3 ovarian.
The subject of assay [4] is 786-0 renal.
In assay [5] the test system is KM12 colon.
Assay [6] relates to IGROV1 ovarian.
Assay [7] has as its system RPMI-8226 leukemia.
In assay [8] the test system is NCI-H226 lung.
Assay [9] has as its system BT-549 breast.
The test system of assay [10] is UACC-257 melanoma.

For `CCN(Cc1ccccc1)c1ccc(CO)c(Cl)c1`, the GI50 in [1] was 29200 nM; in [2] it was 2180 nM; in assay [3] it was 5780 nM; in assay [4], 12000 nM; in assay [5], 20500 nM; in [6] it was 112 nM. Moreover, the GI50 in [7] was 5530 nM; in [8] it was 91.3 nM; in assay [9] it was 14100 nM; in [10], 131 nM. Besides, the TGI in [1] is greater than 100 µM; in [2] it was 25.4 µM; in [3], 35.6 µM; in assay [4] it was 39.3 µM; in [5], 63.3 µM; in [6], 934 nM. The TGI came out at 44.7 µM in [7], 233 nM in assay [8], 44.6 µM in [9] and 316 nM in assay [10].

As to `COc1ccc(-c2cc(-c3cccn3C)c(C#N)c(=O)[nH]2)cc1OC`, the GI50 in [1] was greater than 100000 nM; in assay [2], greater than 100000 nM; in assay [3] it was greater than 100000 nM; in assay [4], greater than 100000 nM; in assay [5], greater than 100000 nM; in assay [6], 91700 nM. Further, the GI50 in [7], in assay [8], in [9] and in assay [10] was greater than 100000 nM throughout. The TGI in [1] is greater than 100 µM; in assay [2] it was greater than 100 µM; in assay [3] it was greater than 100 µM; in assay [4] it was greater than 100 µM; in assay [5], greater than 100 µM; in assay [6], greater than 100000 nM. Moreover, the TGI is greater than 100 µM in assay [7], greater than 100000 nM in [8], greater than 100 µM in assay [9] and greater than 100000 nM in assay [10].

With `COc1ccc(-c2cc(-c3ccc(Cl)cc3)nc(SCCCC(=O)NO)n2)cc1`, the GI50 in assay [1] was 1690 nM; in [2] it was 1570 nM; in [3], 1670 nM; in assay [4], 594 nM; in assay [5], 1440 nM; in assay [6], 1090 nM. For the same compound, the GI50 was 771 nM in [7], 1490 nM in assay [8], 2460 nM in assay [9] and 2310 nM in [10]. For the same compound, the TGI is 5.47 µM in assay [1]; 7.95 µM in [2]; 5.68 µM in assay [3]; 4.52 µM in [4]; 4.12 µM in assay [5]; 3560 nM in assay [6]. Besides, the TGI in [7] is greater than 24.9 µM; in [8] it was 6890 nM; in assay [9], 28.6 µM; in assay [10], 10400 nM.

In the case of `C/C(=N\Nc1cc(C)c2ccccc2n1)c1ccccn1`, the GI50 is 362 nM in assay [1]; 71.4 nM in assay [2]; 119 nM in assay [3]; 135 nM in [4]; 78.9 nM in assay [5]; 112 nM in [7]. Besides, the GI50 in [8] is 225 nM; in assay [9], 301 nM; in assay [10], 87.4 nM. The TGI in assay [1] amounted to 1.96 µM; in assay [2], 1.17 µM; in assay [3], 8.38 µM; in [4], 1.27 µM; in assay [5] it was 1.76 µM; in [6] it was 1490 nM. The TGI was 2.01 µM in assay [7], 2710 nM in [8], 15.7 µM in assay [9] and 452 nM in assay [10].

Regarding `Nc1c2c(c(O)c3c1=C(CO)C=N3)=NCCS2`, the GI50 in assay [1] was 283 nM; in assay [2], 56.1 nM; in [3], 346 nM; in assay [4] it was 317 nM; in [5], 325 nM; in assay [6], 209 nM. Further, the GI50 in assay [7] was 583 nM; in [8] it was 199 nM; in [9], 175 nM; in [10], 142 nM. In addition, the TGI in [1] turned out to be 0.804 µM; in assay [2] it was 0.219 µM; in assay [3], 1.2 µM; in assay [4], 1.23 µM; in assay [5], 1.74 µM; in [6], 535 nM. Further, the TGI was determined as 3.12 µM in [7], 471 nM in [8], 0.317 µM in assay [9] and 288 nM in assay [10].

Consider `CCC(=O)Nc1ccccc1C#C/C=C\C#Cc1ccccc1SC`, for which the GI50 in [1] was 8750 nM; in assay [2], 3350 nM; in [3] it was 53700 nM; in [4], 33600 nM; in assay [5], 5270 nM; in assay [6], 738 nM. Besides, the GI50 in [7] is 1260 nM; in assay [8] it was 16900 nM; in assay [9], 14700 nM; in assay [10] it was 12100 nM. Also, the TGI is greater than 100 µM in assay [1]; greater than 100 µM in assay [2]; greater than 100 µM in [3]; greater than 100 µM in [4]; greater than 100 µM in [5]; 37300 nM in [6]. The TGI in assay [7] is 11.7 µM; in assay [8] it was greater than 100000 nM; in [9] it was greater than 100 µM; in assay [10], 59200 nM.
